Assays:
Assay in all cases: combination Emax (second highest fraction inhibited in the dose matrix, 72 h); higher = more inhibition; extreme values may be limits of the assay
MCF7 (Breast Carcinoma) = tested on: MCF7 (Breast Carcinoma)
Method in brief: (§1)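 Cell lines grown in DMEM/F12 or RPMI with 10% FBS were plated in 1536-well plates and held 24 hours at 37°C, 5% CO2 before 72 hours of exposure to two-drug dose matrices, with DMSO typically at 0.2%. CellTiter-Glo 2.0 luminescence gave viability, which was converted to inhibition. Vehicle wells were set to 0 and blank wells to 1. Combination Emax is the second-highest inhibition in the matrix, and Bliss excess is the observed combination effect minus the expected EA + EB − EA·EB, where EA and EB are the single-agent effects.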

[1] = tested on: SW48 (Colorectal Carcinoma)
Method in brief: as §1

[2] = tested on: SK-LMS-1 (Other Solid Carcinomas)
Method in brief: as §1

[3] = tested on: EFM-192A (Breast Carcinoma)
Method in brief: as §1

[4] = tested on: PA-TU-8902 (Pancreatic Carcinoma)
Method in brief: as §1

CS1 (Chondrosarcoma) = tested on: CS1 (Chondrosarcoma)
Method in brief: as §1

[5] = tested on: NOMO-1 (Acute Myeloid Leukemia)
Method in brief: as §1

[6] = tested on: NCI-H1688 (Small Cell Lung Carcinoma)
Method in brief: as §1

[7] = tested on: 647-V (Bladder Carcinoma)
Method in brief: as §1

HuO9 (Osteosarcoma) = tested on: HuO9 (Osteosarcoma)
Method in brief: as §1

[8] = tested on: TYK-nu (Ovarian Carcinoma)
Method in brief: as §1

[9] = tested on: SNG-M (Endometrial Carcinoma)
Method in brief: as §1

[10] = tested on: BICR78 (Oral Cavity Carcinoma)
Method in brief: as §1

[11] = tested on: U-118-MG (Low Grade Glioma)
Method in brief: as §1

A172 (Glioblastoma) = tested on: A172 (Glioblastoma)
Method in brief: as §1

H4 (Low Grade Glioma) = tested on: H4 (Low Grade Glioma)
Method in brief: as §1

[12] = tested on: GDM-1 (Acute Myeloid Leukemia)
Method in brief: as §1

[13] = tested on: WSU-DLCL2 (B-Cell Non-Hodgkin's Lymphoma)
Method in brief: as §1

[14] = tested on: JHH-6 (Hepatocellular Carcinoma)
Method in brief: as §1

EW-22 (Ewing's Sarcoma) = tested on: EW-22 (Ewing's Sarcoma)
Method in brief: as §1

COc1cc2ncnc(Nc3ccc(F)c(Cl)c3)c2cc1OCCCN1CCOCC1 [Gefitinib] + CC(C)n1c(=O)n(C)c2cnc3cc(F)c(-c4ccc(OCCCN5CCCCC5)nc4)cc3c21 [AZD1390] (first compound max 10 µM, 7x7, partner max 0.3 µM)
combination Emax (MCF7 (Breast Carcinoma)): 0.0973
combination Emax [1]: 0.399
combination Emax [2]: 0.12
combination Emax [3]: 0.262
combination Emax [4]: 0.14
combination Emax (CS1 (Chondrosarcoma)): 0.201
combination Emax [5]: 0.328
combination Emax [6]: 0.233
combination Emax [7]: 0.0854
combination Emax (HuO9 (Osteosarcoma)): 0.12
combination Emax [8]: 0.197
combination Emax [9]: 0.229
combination Emax [10]: 0.286
combination Emax [11]: 0.0987
combination Emax (A172 (Glioblastoma)): 0.169
combination Emax (H4 (Low Grade Glioma)): 0.121
combination Emax [12]: 0.131
combination Emax [13]: 0.128
combination Emax [14]: 0.144
combination Emax (EW-22 (Ewing's Sarcoma)): 0.244

NC1(C(=O)N[C@@H](CCO)c2ccc(Cl)cc2)CCN(c2ncnc3[nH]ccc23)CC1 [Capivasertib] + CC(C)n1c(=O)n(C)c2cnc3cc(F)c(-c4ccc(OCCCN5CCCCC5)nc4)cc3c21 [AZD1390] (first compound max 10 µM, 7x7, partner max 0.3 µM)
combination Emax (MCF7 (Breast Carcinoma)): 0.459
combination Emax [1]: 0.497
combination Emax [2]: 0.324
combination Emax [3]: 0.402
combination Emax [4]: 0.278
combination Emax (CS1 (Chondrosarcoma)): 0.298
combination Emax [5]: 0.429
combination Emax [6]: 0.296
combination Emax [7]: 0.22
combination Emax (HuO9 (Osteosarcoma)): 0.509
combination Emax [8]: 0.309
combination Emax [9]: 0.29
combination Emax [10]: 0.368
combination Emax [11]: 0.47
combination Emax (A172 (Glioblastoma)): 0.226
combination Emax (H4 (Low Grade Glioma)): 0.515
combination Emax [12]: 0.401
combination Emax [13]: 1
combination Emax [14]: 0.309
combination Emax (EW-22 (Ewing's Sarcoma)): 0.437

CC1(C)CCC(CN2CCN(c3ccc(C(=O)NS(=O)(=O)c4ccc(NCC5CCOCC5)c([N+](=O)[O-])c4)c(Oc4cnc5[nH]ccc5c4)c3)CC2)=C(c2ccc(Cl)cc2)C1 [Venetoclax] + CCN(CCO)CCCOc1ccc2c(Nc3cc(CC(=O)Nc4cccc(F)c4)[nH]n3)ncnc2c1 [AZD2811] (first compound max 1 µM, 7x7, partner max 1 µM)
combination Emax (MCF7 (Breast Carcinoma)): 0.31
combination Emax [1]: 0.958
combination Emax [2]: 0.229
combination Emax [3]: 0.212
combination Emax [4]: 0.192
combination Emax (CS1 (Chondrosarcoma)): 0.434
combination Emax [5]: 0.905
combination Emax [6]: 0.242
combination Emax [7]: 0.245
combination Emax (HuO9 (Osteosarcoma)): 0.336
combination Emax [8]: 0.247
combination Emax [9]: 0.278
combination Emax [10]: 0.245
combination Emax [11]: 0.357
combination Emax (A172 (Glioblastoma)): 0.423
combination Emax (H4 (Low Grade Glioma)): 0.583
combination Emax [12]: 0.996
combination Emax [13]: 0.758
combination Emax [14]: 0.193
combination Emax (EW-22 (Ewing's Sarcoma)): 0.924

C=CCn1c(=O)c2cnc(Nc3ccc(N4CCN(C)CC4)cc3)nc2n1-c1cccc(C(C)(C)O)n1 [AZD1775] + C[C@@H]1COCCN1C2=NC(=NC(=C2)C3(CC3)[S@](=N)(=O)C)C4=C5C=CNC5=NC=C4 [AZD6738] (first compound max 1 µM, partner max 10 µM)
combination Emax (MCF7 (Breast Carcinoma)): 0.73
combination Emax [1]: 0.886
combination Emax [2]: 0.704
combination Emax [3]: 0.39
combination Emax [4]: 0.49
combination Emax (CS1 (Chondrosarcoma)): 0.766
combination Emax [5]: 0.978
combination Emax [6]: 0.789
combination Emax [7]: 0.769
combination Emax (HuO9 (Osteosarcoma)): 0.94
combination Emax [8]: 0.732
combination Emax [9]: 0.947
combination Emax [10]: 0.667
combination Emax [11]: 0.662
combination Emax (A172 (Glioblastoma)): 0.81
combination Emax (H4 (Low Grade Glioma)): 0.994
combination Emax [12]: 0.861
combination Emax [13]: 1
combination Emax [14]: 0.553
combination Emax (EW-22 (Ewing's Sarcoma)): 0.902

From the supplement of paper PMC11061612
